According to PMC10817945, “Design of a novel analogue peptide with potent antibiofilm activities against Staphylococcus aureus based upon a sapecin B-derived peptide” (Scientific Reports, 2024):
≈ marks a conversion by molar mass, not a printed value. Read-outs that look alike come from different tables or passages of the source. Non-standard residues stand in square brackets, D forms with d. Residues, ends and D or L forms follow the SMILES beside them.

Assays:
S. aureus strains [1] = assay type: cell-based, Staphylococcus aureus; details: for inhibition of biofilm formation: strains, 24 h
Experimental: (§1) To investigate the inhibitory effect of KLK and mKLK peptides on bacterial surface attachment and biofilm formation, the bacterial suspension in TSB with a concentration of 10^7 CFU/ml was prepared from overnight culture. An aliquot of 100 μl of the bacterial suspension was added to wells of 96-well plates containing 100 μl of the peptides solution with concentrations of 1×, 1/2× and 1/4× MIC, resulting in the final peptides concentrations of 1/2×, 1/4× and 1/8× MIC. To investigate the inhibitory effect of the peptides on surface attachment the incubation was performed at 37 °C for 2 h and to evaluate their inhibitory activity on biofilm formation the incubation was performed at 37 °C for 24 h. The wells containing only TSB medium were used as negative controls. After incubation, the contents of the wells were removed and washed three times with PBS and the wells were stained with 200 μl of 0.1% crystal violet for 20 min. The plates were washed again and excess dye was removed. A volume of 200 μl of 95% ethanol was added to each well for 20 min and absorbance was measured at 570 nm by a microplate reader.

S. aureus isolates = test: microbe, parasite or virus in culture; assay type: cell-based, Staphylococcus aureus
Experimental: Minimum inhibitory concentrations (MIC) of KLK, mKLK, and vancomycin were determined using microdilution broth assay according to clinical and laboratory standards institute (CLSI) guidelines with some modifications. Briefly, overnight cultures were diluted in Muller-Hinton broth (MHB; Merck, Germany) to achieve a final density of 5 × 10^5 CFU/ml. A volume of 100 μl of bacterial suspension was added to wells of sterile 96-well plates containing 100 μl of two-fold peptide dilutions, ranging from 0.25 to 256 µg/ml. Vancomycin was used as a positive control in this assay. […] MBC was determined by removing samples from wells with no visible growth, serially diluting, and plating on Mueller Hinton (MH) agar plates for CFU counting.

[2] = tested on: one MRSA and reference strain (ATCC25923); test: Time-kill kinetics assay
Experimental: The peptide-free control was included for each strain. Following incubation at 37 °C for 0, 0.25, 0.5, 1, 2, 4, 5, and 24 h, each sample was serially diluted, plated onto Mueller–Hinton (MH) agar (Merck, Germany) plates and incubated at 37 °C. The viable plate count method was performed after incubation for 24 h and the counts were expressed as Log CFU/ml[44].

S. aureus strains [3] = test: Inhibition of bacterial surface attachment (crystal violet); assay type: cell-based, Staphylococcus aureus
Experimental: as §1

SMILES: CC(C)C[C@@H](NC(=O)[C@H](N)CCCCN)C(=O)N[C@H](CCCCN)C(=O)N[C@H](CC(C)C)C(=O)N[C@H](CC(C)C)C(=O)N[C@H](CC(C)C)C(=O)N[C@H](CC(C)C)C(=O)N[C@H](CC(C)C)C(=O)N[C@H](CCCCN)C(=O)N[C@H](CC(C)C)C(=O)N[C@H](CCCCN)C(N)=O [KLK] (H-[dK][dL][dK][dL][dL][dL][dL][dL][dK][dL][dK]-NH2; N-terminus assumed)
- crystal violet absorbance at 570 nm, biofilm formation, Mean±SD (S. aureus strains [1]; MSSA-1, 1/4MIC, control 2.190±0.01): 1.971±0.10
- crystal violet absorbance at 570 nm, biofilm formation, Mean±SD (S. aureus strains [1]; MSSA-1, 1/8MIC, control 2.190±0.01): 2.007±0.13
- crystal violet absorbance at 570 nm, biofilm formation, Mean±SD (S. aureus strains [1]; MSSA-2, 1/2MIC, control 1.802±0.02): 1.261±0.01
- crystal violet absorbance at 570 nm, biofilm formation, Mean±SD (S. aureus strains [1]; MSSA-2, 1/4MIC, control 1.802±0.02): 1.627±0.01
- crystal violet absorbance at 570 nm, biofilm formation, Mean±SD (S. aureus strains [1]; MSSA-2, 1/8MIC, control 1.802±0.02): 1.633±0.04
- inhibition of biofilm formation (S. aureus strains [1]; 2): 48-66%
- inhibition of biofilm formation (S. aureus strains [1]; 4): 9-11%
- inhibition of biofilm formation (S. aureus strains [1]; 8): 6-9%
- MIC (S. aureus isolates; ATCC25923): 4 µg/mL (≈ 3.03 µM)
- MIC (S. aureus isolates; MRSA-1): 8 µg/mL (≈ 6.05 µM)
- MIC (S. aureus isolates; MRSA-2): 8 µg/mL (≈ 6.05 µM)
- MIC (S. aureus isolates; MRSA-3): 8 µg/mL (≈ 6.05 µM)
- MIC (S. aureus isolates; MSSA-1): 4 µg/mL (≈ 3.03 µM)
- MIC (S. aureus isolates; MSSA-2): 4 µg/mL (≈ 3.03 µM)
- MIC (S. aureus isolates; three MRSA isolates): 8 µg/mL (≈ 6.05 µM)
- MIC (S. aureus isolates; two MSSA isolates): 4 µg/mL (≈ 3.03 µM)
- time after which no regrowth was observed ([2]; ATCC 25923, 1 × MIC (4 μg/ml)): 30 min
- time after which no regrowth was observed ([2]; ATCC 25923, 2 × MIC (8 μg/ml)): 15 min
- time after which no regrowth was observed ([2]; MRSA, 1 × MIC): 300 min
- reduction in viable cell count ([2]; MRSA, 1 × MIC (8 μg/ml), within 2 h): ~ 1 log
- crystal violet absorbance at 570 nm, bacterial attachment, Mean±SD (S. aureus strains [3]; ATCC25923, 1/2MIC, control 2.136±0.01): 1.904±0.08
- crystal violet absorbance at 570 nm, bacterial attachment, Mean±SD (S. aureus strains [3]; ATCC25923, 1/4MIC, control 2.136±0.01): 1.965±0.03
- crystal violet absorbance at 570 nm, bacterial attachment, Mean±SD (S. aureus strains [3]; ATCC25923, 1/8MIC, control 2.136±0.01): 2.03±0.07
- crystal violet absorbance at 570 nm, bacterial attachment, Mean±SD (S. aureus strains [3]; MRSA-1, 1/2MIC, control 1.861±0.02): 1.508±0.03
- crystal violet absorbance at 570 nm, bacterial attachment, Mean±SD (S. aureus strains [3]; MRSA-1, 1/4MIC, control 1.861±0.02): 1.712±0.01
- crystal violet absorbance at 570 nm, bacterial attachment, Mean±SD (S. aureus strains [3]; MRSA-1, 1/8MIC, control 1.861±0.02): 1.8±0.17
- crystal violet absorbance at 570 nm, bacterial attachment, Mean±SD (S. aureus strains [3]; MRSA-2, 1/2MIC, control 2.311±0.005): 2.082±2.02
- crystal violet absorbance at 570 nm, bacterial attachment, Mean±SD (S. aureus strains [3]; MRSA-2, 1/4MIC, control 2.311±0.005): 2.146±0.008
- crystal violet absorbance at 570 nm, bacterial attachment, Mean±SD (S. aureus strains [3]; MRSA-2, 1/8MIC, control 2.311±0.005): 2.198±0.04
- crystal violet absorbance at 570 nm, bacterial attachment, Mean±SD (S. aureus strains [3]; MRSA-3, 1/2MIC, control 1.491±0.06): 1.031±0.07
- crystal violet absorbance at 570 nm, bacterial attachment, Mean±SD (S. aureus strains [3]; MRSA-3, 1/4MIC, control 1.491±0.06): 1.369±0.01
- crystal violet absorbance at 570 nm, bacterial attachment, Mean±SD (S. aureus strains [3]; MRSA-3, 1/8MIC, control 1.491±0.06): 1.428±0.06
- crystal violet absorbance at 570 nm, bacterial attachment, Mean±SD (S. aureus strains [3]; MSSA-1, 1/2MIC, control 2.107±0.08): 1.89±0.002
- crystal violet absorbance at 570 nm, bacterial attachment, Mean±SD (S. aureus strains [3]; MSSA-1, 1/4MIC, control 2.107±0.08): 1.925±0.06
- crystal violet absorbance at 570 nm, bacterial attachment, Mean±SD (S. aureus strains [3]; MSSA-1, 1/8MIC, control 2.107±0.08): 2.006±0.01
- crystal violet absorbance at 570 nm, bacterial attachment, Mean±SD (S. aureus strains [3]; MSSA-2, 1/2MIC, control 2.061±0.01): 1.804±0.03
- crystal violet absorbance at 570 nm, bacterial attachment, Mean±SD (S. aureus strains [3]; MSSA-2, 1/8MIC, control 2.061±0.01): 1.958±0.07
